The CheMixHub viscosity set
± gives the uncertainty stated by the source.

Experiment: xn = mol fraction of the nth substance listed

[Cl-].[Cl-].[Sr+2] + O
Settings	viscosity [mPa·s]
293.15 K, 100 kPa, x1 = 0.0048	1.08 ± 0.036
293.15 K, 100 kPa, x1 = 0.01	1.172 ± 0.038
293.15 K, 100 kPa, x1 = 0.016	1.283 ± 0.042
293.15 K, 100 kPa, x1 = 0.0302	1.607 ± 0.053
293.15 K, 100 kPa, x1 = 0.0452	2.065 ± 0.068
293.15 K, 101.3 kPa, x1 = 0.0009	1.018 ± 0.022
293.15 K, 101.3 kPa, x1 = 0.0018	1.032 ± 0.022
293.15 K, 101.3 kPa, x1 = 0.00893	1.146 ± 0.024
293.15 K, 101.3 kPa, x1 = 0.0177	1.312 ± 0.028
293.15 K, 101.3 kPa, x1 = 0.02631	1.515 ± 0.032
293.15 K, 101.3 kPa, x1 = 0.03478	1.722 ± 0.036
293.15 K, 101.3 kPa, x1 = 0.0431	1.994 ± 0.042
298.15 K, 100 kPa, x1 = 0.0048	0.9628 ± 0.032
298.15 K, 100 kPa, x1 = 0.01	1.048 ± 0.034
298.15 K, 100 kPa, x1 = 0.016	1.152 ± 0.038
298.15 K, 100 kPa, x1 = 0.0302	1.447 ± 0.047
298.15 K, 100 kPa, x1 = 0.0452	1.862 ± 0.061
298.15 K, 101.3 kPa, x1 = 0.0009	0.9055 ± 0.019
298.15 K, 101.3 kPa, x1 = 0.0018	0.9188 ± 0.02
298.15 K, 101.3 kPa, x1 = 0.00893	1.025 ± 0.022
298.15 K, 101.3 kPa, x1 = 0.0177	1.179 ± 0.025
298.15 K, 101.3 kPa, x1 = 0.02631	1.364 ± 0.029
298.15 K, 101.3 kPa, x1 = 0.03478	1.552 ± 0.033
298.15 K, 101.3 kPa, x1 = 0.0431	1.797 ± 0.038
303.15 K, 101.3 kPa, x1 = 0.0009	0.8117 ± 0.017
303.15 K, 101.3 kPa, x1 = 0.0018	0.8241 ± 0.017
303.15 K, 101.3 kPa, x1 = 0.00893	0.9228 ± 0.02
303.15 K, 101.3 kPa, x1 = 0.0177	1.065 ± 0.023
303.15 K, 101.3 kPa, x1 = 0.02631	1.236 ± 0.026
303.15 K, 101.3 kPa, x1 = 0.03478	1.408 ± 0.03
303.15 K, 101.3 kPa, x1 = 0.0431	1.63 ± 0.034
308.15 K, 101.3 kPa, x1 = 0.0009	0.7325 ± 0.015
308.15 K, 101.3 kPa, x1 = 0.0018	0.7443 ± 0.016
308.15 K, 101.3 kPa, x1 = 0.00893	0.8365 ± 0.018
308.15 K, 101.3 kPa, x1 = 0.0177	0.9688 ± 0.02
308.15 K, 101.3 kPa, x1 = 0.02631	1.127 ± 0.024
308.15 K, 101.3 kPa, x1 = 0.03478	1.284 ± 0.027
308.15 K, 101.3 kPa, x1 = 0.0431	1.487 ± 0.031
313.2 K, 100 kPa, x1 = 0.0302	1.096 ± 0.036
313.56 K, 100 kPa, x1 = 0.0048	0.7071 ± 0.023
313.9 K, 100 kPa, x1 = 0.01	0.7701 ± 0.025
314.54 K, 100 kPa, x1 = 0.0452	1.374 ± 0.045
315.86 K, 100 kPa, x1 = 0.016	0.8261 ± 0.027
318.15 K, 101.3 kPa, x1 = 0.0009	0.6082 ± 0.013
318.15 K, 101.3 kPa, x1 = 0.0018	0.6186 ± 0.013
318.15 K, 101.3 kPa, x1 = 0.00893	0.6997 ± 0.015
318.15 K, 101.3 kPa, x1 = 0.0177	0.8151 ± 0.017
318.15 K, 101.3 kPa, x1 = 0.02631	0.9514 ± 0.02
318.15 K, 101.3 kPa, x1 = 0.03478	1.086 ± 0.023
318.15 K, 101.3 kPa, x1 = 0.0431	1.258 ± 0.026

[K+].[O-][Cl+2]([O-])[O-] + O
viscosity [mPa·s], 100 kPa
Settings	293.15 K	298.15 K	303.15 K	308.15 K	313.15 K	318.15 K
x1 = 0.000182	0.995 ± 0.031	0.888 ± 0.028	0.799 ± 0.025	0.725 ± 0.022	0.661 ± 0.02	0.607 ± 0.019
x1 = 0.0018	0.984 ± 0.03	0.878 ± 0.027	0.789 ± 0.024	0.717 ± 0.022	0.655 ± 0.02	0.602 ± 0.019
x1 = 0.003608	0.979 ± 0.03	0.874 ± 0.027	0.788 ± 0.024	0.717 ± 0.022	0.656 ± 0.02	0.603 ± 0.019
x1 = 0.005413	0.977 ± 0.03	0.873 ± 0.027	0.788 ± 0.024	0.718 ± 0.022	0.656 ± 0.02	0.604 ± 0.019
x1 = 0.00717	0.977 ± 0.03	0.876 ± 0.027	0.791 ± 0.024	0.72 ± 0.022	0.659 ± 0.02	0.608 ± 0.019
x1 = 0.008941	0.983 ± 0.03	0.881 ± 0.027	0.797 ± 0.025	0.725 ± 0.022	0.665 ± 0.021	0.613 ± 0.019
